How the values were obtained:
[1] = experiment 2, I.P. 8 mg/kg once per week
[2] = tested on: DU-145 human prostate tumor cells; test: DU-145 xenograft tumor growth in nude mice; assay type: in vivo, nude mice (nu/nu); details: experiment 2; I.P. 8 mg/kg once per week; after 5 treatments
Method: Cage were cleaned and bedding changed once weekly. Irradiated corn cob bedding was used. Animals were observed daily and clinical signs were noted.
Morbidity and mortality were monitored daily.
The dosage level was determined by exact body weight.
Five mice per treatment group were tested.
Animals were treated once per week for 5 weeks.

COc1cccc2c1C(=O)c1c(O)c3c(c(O)c1C2=O)C[C@@](O)(C(=O)CO)C[C@@H]3O[C@H]1C[C@H](N)[C@H](O)[C@H](C)O1 [doxorubicin]
animals survived ([1]; after 5 treatments): 3/6 | average group weight in the surviving animals, down by ([1]; after the 5th treatment): 27% | tumor volumes less compared to placebo-control tumors [2]: 4.4 fold

Source: patent US20040192665A1 (priority 2002, published 2004)
